Here are results for three molecules from patent publication EP0232089B1, “Quinone amides, their production and use” (Takeda Chemical Industries, Ltd., priority 1986, dated 1987).

Marks after values point to notes of the source that are not given here.

The assay has as its system Bronchoconstriction in guinea pigs induced by PAF. The assay is described as follows: Platelet activating factor (PAF)-induced bronchoconstriction in guinea pigs (method of Konzett-Rossler). The following applies: 8 animals. It is filed as in vivo. On the procedure:
Platelet activating factor (PAF)-induced bronchoconstriction in guinea pigs
Bronchoconstriction in guinea pigs induced by PAF (1 µg/kg, intravenous injection) was measured by the method of Konzett-Rossler. The following procedure was the same as that in leukotriene D4(LTD4)-induced bronchoconstriction. Test drugs were orally administered as a 5% gum arabic solution one hour before administration of PAF. Table 2 Inhibitory action against bronchoconstriction in guinea pigs

The mark [1] stands for this setting: dose 5 mg/kg orally as 5% gum arabic solution one hour before PAF (1 µg/kg, intravenous injection).

`CC1=C(C)C(=O)C(C(CCCCCC(=O)N2CCN(CCc3ccccc3)CC2)c2ccccc2)=C(C)C1=O` (racemic) [Compound No. 18, 7-(3,5,6-trimethyl-1 ,4-benzoquinon-2-yl)-7-phenylheptanoic acid 4-(2-phenylethyl)-piperazinamide]: under setting [1], the “% inhibition” value is given as 59.9* %.

In the case of `CC1=C(C)C(=O)C(C(CCCCCC(N)=O)c2ccccc2)=C(C)C1=O` (centres unmarked) [Compound No. 1, 7-(3,5,6-trimethyl-1,4-benzoquinon-2-yl)-7-phenylheptanamide], the “% inhibition” value reads like this: (dose 0.313 mg/kg orally as 5% gum arabic solution one hour before PAF (1 µg/kg, intravenous injection)) 49.7* %; (dose 1.25 mg/kg orally as 5% gum arabic solution one hour before PAF (1 µg/kg, intravenous injection)) 80.3** %; under setting [1], 100.0** %.

Take `CC1=C(C)C(=O)C(C(CCCCCC(=O)NC(Cc2ccccc2)C(=O)O)c2ccccc2)=C(C)C1=O` (centres unmarked) [Compound No. 30]: the “% inhibition” value under setting [1] is given as 72.1* %.
